The target in one assay is human orexin 1 receptor (Homo sapiens, UniProt O43613). Kind of assay: Human orexin 1 receptor radioligand binding. The conditions noted are these: human orexin 1 receptor; averages of 2-20 runs; read-out: hOX1 Ki. The procedure, abridged:
(§1)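 Competition binding with the tritiated thiazolyl-pyrrolidinyl-methanone radioligand in PBS on homogenized rat or human OX1R-expressing cell suspensions, ≤0.1% DMSO; nonspecific binding defined with 10 μM almorexant. Bound radioactivity read by scintillation after filtration; IC50 from one-site competition fit, converted to Ki using pre-determined radioligand Kd.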

Another assay concerns the target human orexin 2 receptor (Homo sapiens (Human), UniProt O43614). Kind of assay: Human orexin 2 receptor radioligand binding. The following applies: human orexin 2 receptor; averages of 2-20 runs; read-out: hOX2 Ki. The procedure, abridged: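 HEK293 cells stably expressing human OX2 receptor, homogenized, incubated with [3H]-EMPA and compounds (DMSO ≤0.1%); nonspecific binding with 10 μM almorexant. Filter-bound radioactivity counted by scintillation; IC50 from one-site competition fit of triplicates, Ki from IC50 and predetermined radioligand Kd, averaged over 2-20 runs.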

The next assay concerns the target rat orexin 1 receptor (Rattus norvegicus, UniProt P56718). Kind of assay: Rat orexin 1 receptor radioligand binding. The following applies: rat orexin 1 receptor; averages of 2-20 runs; read-out: rOX1 Ki. The procedure, abridged: as §1

Chain of human orexin 2 receptor (O43614 whole entry): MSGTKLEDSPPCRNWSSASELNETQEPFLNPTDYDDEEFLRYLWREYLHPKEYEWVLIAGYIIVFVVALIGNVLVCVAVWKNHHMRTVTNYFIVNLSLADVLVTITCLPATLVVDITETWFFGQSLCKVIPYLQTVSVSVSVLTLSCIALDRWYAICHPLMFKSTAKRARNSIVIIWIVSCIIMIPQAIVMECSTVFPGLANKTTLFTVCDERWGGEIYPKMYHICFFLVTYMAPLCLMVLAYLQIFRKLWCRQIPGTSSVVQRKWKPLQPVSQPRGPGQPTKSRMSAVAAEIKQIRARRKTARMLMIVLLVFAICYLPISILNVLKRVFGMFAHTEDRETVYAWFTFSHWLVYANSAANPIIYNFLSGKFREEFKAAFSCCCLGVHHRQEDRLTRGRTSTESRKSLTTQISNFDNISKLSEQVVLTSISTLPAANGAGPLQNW

A word on the Ki: it is the equilibrium dissociation constant of an inhibitor or competing ligand from its target. In the case of `O=C(c1cccc(F)c1-c1ncccn1)N1C[C@@H]2CC[C@H]1[C@H](Oc1ccc(Br)cn1)C2` [Example 269, ((1S,4R,6R)-6-((5-bromopyridin-2-yl)oxy)-2-azabicyclo[2.2.2]octan-2-yl)(3-fluoro-2-(pyrimidin-2-yl)phenyl)methanone], the inhibitory constant (Ki) on human orexin 1 receptor was 5 nM; at human orexin 2 receptor it was 363 nM; at rat orexin 1 receptor it was 4 nM.

`O=C(c1c(F)cccc1-n1nccn1)N1C[C@H]2C[C@@H](Nc3cnc(C(F)(F)F)cn3)[C@@H]1C2` [Example 195, (2-fluoro-6-(2H-1,2,3-triazol-2-yl)phenyl)((1S,4S,6R)-6-((5-(trifluoromethyl)pyrazin-2-yl)amino)-2-azabicyclo[2.2.1]heptan-2-yl)methanone]: the figures for the inhibition constant (Ki) on human orexin 1 receptor, on human orexin 2 receptor and at rat orexin 1 receptor were 8 nM, 199 nM and 9 nM, respectively.

As for `CN(c1cnc(C(F)(F)F)cn1)[C@@H]1C[C@H]2C[C@@H]1N(C(=O)c1ccccc1-c1ncccn1)C2` [Example 210, ((1S,4S,6R)-6-(methyl(5-(trifluoromethyl)pyrazin-2-yl)amino)-2-azabicyclo[2.2.1]heptan-2-yl)(2-(pyrimidin-2-yl)phenyl)methanone], the Ki at human orexin 1 receptor was 5 nM; at human orexin 2 receptor, 502 nM; at rat orexin 1 receptor, 6 nM.

With `O=C(c1ccccc1-c1ccccc1)N1C[C@H]2C[C@@H](Nc3cnc(C(F)(F)F)cn3)[C@@H]1C2` [Example 206, [1,1′-biphenyl]-2-yl((1S,4S,6R)-6-((5-(trifluoromethyl)pyrazin-2-yl)amino)-2-azabicyclo[2.2.1]heptan-2-yl)methanone], the Ki on human orexin 1 receptor was 10 nM; on human orexin 2 receptor it was 103 nM; on rat orexin 1 receptor it was 8 nM.

Take `O=C(c1ccc(F)cc1-c1ncccn1)N1C[C@H]2C[C@@H](Nc3ncc(C(F)(F)F)cn3)[C@@H]1C2` [Example 227, (4-fluoro-2-(pyrimidin-2-yl)phenyl)((1S,4S,6R)-6-((5-(trifluoromethyl)pyrimidin-2-yl)amino)-2-azabicyclo[2.2.1]heptan-2-yl)methanone]: the results for the Ki at human orexin 1 receptor, at human orexin 2 receptor and at rat orexin 1 receptor were 13 nM, 3100 nM and 12 nM, respectively.

Consider `COc1ccc(N[C@@H]2C[C@H]3C[C@@H]2N(C(=O)c2ccccc2-n2nccn2)C3)nc1` [Example 175, (2-(2H-1,2,3-triazol-2-yl)phenyl)((1S,4S,6R)-6-((5-methoxypyridin-2-yl)amino)-2-azabicyclo[2.2.1]heptan-2-yl)methanone], for which the figures for the inhibition constant (Ki) on human orexin 1 receptor, at human orexin 2 receptor and at rat orexin 1 receptor were 191 nM, 844 nM and 170 nM, respectively.

Take `Cc1cccc(C(=O)N2C[C@H]3C[C@@H](Nc4cnc(C(F)(F)F)cn4)[C@@H]2C3)c1-n1nccn1` [Example 196, (3-methyl-2-(2H-1,2,3-triazol-2-yl)phenyl)((1S,4S,6R)-6-((5-(trifluoromethyl)pyrazin-2-yl)amino)-2-azabicyclo[2.2.1]heptan-2-yl)methanone]: the Ki on human orexin 1 receptor is 4 nM; on human orexin 2 receptor it was 60 nM; on rat orexin 1 receptor, 6 nM.

In the case of `Cc1ccc(-c2ncccn2)c(C(=O)N2C[C@H]3C[C@@H](Nc4cnc(C(F)(F)F)cn4)[C@@H]2C3)n1` [Example 191, (6-methyl-3-(pyrimidin-2-yl)pyridin-2-yl)((1S,4S,6R)-6-((5-(trifluoromethyl)pyrazin-2-yl)amino)-2-azabicyclo[2.2.1]heptan-2-yl)methanone], the Ki at human orexin 1 receptor amounted to 13 nM; at human orexin 2 receptor it was 163 nM; on rat orexin 1 receptor it was 15 nM.

`O=C(c1nccnc1-c1ccccc1)N1C[C@H]2C[C@@H](Nc3cnc(C(F)(F)F)cn3)[C@@H]1C2` [Example 205, (3-phenylpyrazin-2-yl)((1S,4S,6R)-6-((5-(trifluoromethyl)pyrazin-2-yl)amino)-2-azabicyclo[2.2.1]heptan-2-yl)methanone]: the inhibition constant (Ki) amounted to 35 nM at human orexin 1 receptor, 846 nM on human orexin 2 receptor and 51 nM at rat orexin 1 receptor.

For the compound `Cc1ccc(-c2ncccn2)c(C(=O)N2C[C@H]3C[C@@H](Nc4ccc(C(F)(F)F)nn4)[C@@H]2C3)n1` [Example 244, (6-methyl-3-(pyrimidin-2-yl)pyridin-2-yl)((1S,4S,6R)-6-((6-(trifluoromethyl)pyridazin-3-yl)amino)-2-azabicyclo[2.2.1]heptan-2-yl)methanone], the Ki on human orexin 1 receptor came to 143 nM; on human orexin 2 receptor it was 1700 nM; on rat orexin 1 receptor, 114 nM.

In the case of `CN(c1cnc(C(F)(F)F)cn1)[C@@H]1C[C@H]2C[C@@H]1N(C(=O)c1cccc(F)c1-c1ncccn1)C2` [Example 208, (3-fluoro-2-(pyrimidin-2-yl)phenyl)((1S,4S,6R)-6-(methyl(5-(trifluoromethyl)pyrazin-2-yl)amino)-2-azabicyclo[2.2.1]heptan-2-yl)methanone], the Ki at human orexin 1 receptor was 6 nM; on human orexin 2 receptor, 846 nM; on rat orexin 1 receptor, 7 nM.

Turning to `O=C(c1cccc(F)c1-n1nccn1)N1C[C@H]2C[C@@H](Oc3ccc(Br)cn3)[C@@H]1C2` [Example 106, ((1S,4R,6R)-6-((5-bromopyridin-2-yl)oxy)-2-azabicyclo[2.2.1]heptan-2-yl)(3-fluoro-2-(2H-1,2,3-triazol-2-yl)phenyl)methanone], the inhibition constant (Ki) at human orexin 1 receptor is 4 nM; on human orexin 2 receptor, 436 nM; on rat orexin 1 receptor, 3 nM.

Turning to `O=C(c1cccc(F)c1-c1ncccn1)N1C[C@H]2C[C@@H](Oc3ccc(C(F)F)cn3)[C@@H]1C2` [Example 123, ((1S,4R,6R)-6-((5-(difluoromethyl)pyridin-2-yl)oxy)-2-azabicyclo[2.2.1]heptan-2-yl)(3-fluoro-2-(pyrimidin-2-yl)phenyl)methanone], the Ki was 10 nM at human orexin 1 receptor, 149 nM on human orexin 2 receptor and 11 nM on rat orexin 1 receptor.

For `O=C(c1cccc(F)c1-c1ncccn1)N1C[C@H]2C[C@@H](Nc3cnc(Cl)cn3)[C@@H]1C2` [Example 214, ((1S,4S,6R)-6-((5-chloropyrazin-2-yl)amino)-2-azabicyclo[2.2.1]heptan-2-yl)(3-fluoro-2-(pyrimidin-2-yl)phenyl)methanone], the values for the Ki at human orexin 1 receptor, on human orexin 2 receptor and at rat orexin 1 receptor were 14 nM, 708 nM and 13 nM, respectively.

On to `CN(c1ccc(C(F)(F)F)cn1)[C@@H]1C[C@H]2C[C@@H]1N(C(=O)c1c(F)cccc1-c1ncccn1)C2` [Example 159, (2-fluoro-6-(pyrimidin-2-yl)phenyl)((1S,4S,6R)-6-(methyl(5-(trifluoromethyl)pyridin-2-yl)amino)-2-azabicyclo[2.2.1]heptan-2-yl)methanone], for which the inhibitory constant (Ki) on human orexin 1 receptor stood at 4 nM; at human orexin 2 receptor, 209 nM; on rat orexin 1 receptor it was 6 nM.

In the case of `O=C(c1cccc(F)c1-c1ncccn1)N1C[C@H]2C[C@@H](N(CC3CC3)c3cnc(C(F)(F)F)cn3)[C@@H]1C2` [Example 211, ((1S,4S,6R)-6-((cyclopropylmethyl)(5-(trifluoromethyl)pyrazin-2-yl)amino)-2-azabicyclo[2.2.1]heptan-2-yl)(3-fluoro-2-(pyrimidin-2-yl)phenyl)methanone], the Ki on human orexin 1 receptor is 16 nM; on human orexin 2 receptor, 1300 nM; on rat orexin 1 receptor, 31 nM.

For the compound `CCc1cnc(O[C@@H]2C[C@H]3C[C@@H]2N(C(=O)c2cccc(F)c2-c2ncccn2)C3)nc1` [Example 137, ((1S,4R,6R)-6-((5-ethylpyrimidin-2-yl)oxy)-2-azabicyclo[2.2.1]heptan-2-yl)(3-fluoro-2-(pyrimidin-2-yl)phenyl)methanone], the results for the Ki at human orexin 1 receptor, at human orexin 2 receptor and at rat orexin 1 receptor were 65 nM, 1700 nM and 39 nM, respectively.

Values taken from patent US9611277B2 (Janssen Pharmaceutica NV, priority 2013, dated 2017).
